This note sets out measurements from patent publication US20110288103A1, “COMPOUNDS, COMPOSITIONS, AND METHODS COMPRISING 1,3,4-OXADIAZOLE DERIVATIVES” (Institute for OneWorld Health, priority 2010, published 2011).

Assay [1] has as its system calcium-activated chloride channels (CaCC). Nature of the assay: Whole cell patch clamp recording of CaCC-mediated Cl- currents in JME/CF15 cells. In kind it is cell-based. Here is the method: Effect on calcium-activated chloride channels (CaCC) was investigated in JME/CF15 cells (see Jefferson et al. “Expression of normal and cystic fibrosis phenotypes by continuous airway epithelial cell lines” Am J. Physiol. (1990) December; 259 (6 Pt 1): L496-505). […] Test compound was Compound 10 ('915/2 in FIGS. 1 and 2) and positive control for CaCC was flufenamic acid (FFA).
JME/CF15 cells were prepared for whole cell patch clamp recordings following standard protocols (as described in Fischer et al. “Basolateral Cl channels in primary airway epithelial cultures” Am J Physiol Lung Cell Mol Physiol. (2007) 292:L1432-L1443, which is incorporated herein by reference in its entirety) while incubated in a bath solution as follows (mM): 140 HCl, 158 N-methyl-D-glucamine (NMDG), 2 CaCl2, 1 MgCl2, 12.5 Hepes, 10 glucose, pH 7.4. To selectively activate calcium-activated chloride channels (CaCC), the pipette solution consisted of (in mM) HCl, 160 N-methyl-D-glucamine (NMDG), 1 MgCl2, 5 Hepes, 1 glucose, 5 MgATP, pH 7.4.
(§1) Conventional whole cell patch clamp recordings were made. Effects of compounds were tested in 2 runs at 1 and 10 μM, respectively, on CaCC. To activate CaCC mediated Cl^− conductances, the pipette solution contained 500 nM CaCl2 without EGTA (in order to allow for agonist induced regulation of CaCC) or a mixture of 1.8 mM CaCl2 and 2 mM EGTA resulting in a free concentration of calcium of 500 nM to maintain a stable intracellular calcium concentration.
(§2) CaCC-mediated Cl^− currents were measured with a pipette solution that contained ˜500 nM free Ca to activate CaCC. […] This is likely a Ca-activated K^+ conductance because i) it generates a large outward current (which rules out a Cl^− conductance), and ii) it is transient (likely because intracellular K^+ is exhausted).
Background: The patch-clamp technique gives a direct electrical read-out from membranes.

Assay [2] concerns Ca-activated K+ conductance. Nature of the assay: Whole cell patch clamp in JME/CF15 cells: additional (K+) conductance. In kind it is cell-based. The procedure:
as §1, §2
The experimental conditions were not set up to measure a K^+ conductance, i.e., there is no K^+ in the employed solutions, and the measured currents are dependent on the residual K^+ found in cells. […] In an epithelial setting, concurrent block of CaCC and a K^+ conductance may result in weaker blocker efficiency or even in stimulation of secretion.

In assay [3] the test system is intestinal loops injected with cholera toxin (CTX). More on the design: species or system mice (CD1 strain). The following applies: mouse, in vivo.

“And” between values parts separate entries of the source, which are not always exact repeats. Equal entries are not always repeated. “Also recorded” adds a separate entry of the source.

Turning to `CN(Cc1ccc(Cl)c(Cl)c1)C(=O)c1nnc(-c2cccc(NS(=O)(=O)C(F)(F)F)c2)o1` [Compound 10, N-(3,4-dichlorobenzyl)-N-methyl-5-(3-(trifluoromethylsulfonamido)phenyl)-1,3,4-oxadiazole-2-carboxamide], the “Block of CaCC-mediated Cl- currents” value in assay [1] (intracellular calcium stably buffered (with EGTA), ~500 nM free Ca, compound added to bath, runs at 1 and 10 μM, FIG. 1) is given as “blocking; also recorded: blocked currents”. Further, in assay [1] (intracellular calcium unbuffered (low EGTA), ~500 nM free Ca, 10 μM, FIG. 2), the “Block of CaCC-mediated (remaining) chloride current” value was “blocking; also recorded: eventually well blocked”. Also, the “Activation of a K+ conductance” value in assay [2] (Ca-buffered solutions) is “not in Ca-buffered”. The “Activation of an additional conductance (likely Ca-activated K+ conductance)” value in assay [2] (intracellular calcium unbuffered (low EGTA), 10 μM, FIG. 2) is recorded as “transiently activated an additional conductance; also recorded: activation of a Ca-activated K^+ conductance”. In assay [3], the “Inhibition of CTX-induced fluid secretion (statistical significance)” value was “statistically significant inhibition”; the “Mean net fluid secretion (loop weight/loop length)” value is 0.04996 g/cm and 0.04015 g/cm and 0.07645 g/cm.

Take `O=C(NCc1ccc(Oc2ccccc2)cc1)c1nc(-c2cc(Br)c(O)c(Br)c2)no1` [BF000710032, 3-(3,5-dibromo-4-hydroxyphenyl)-N-(4-phenoxybenzyl)-1,2,4-oxadiazole-5-carboxamide, reference compound]: in assay [3], the “% Inhibition” value is recorded as 62.69%^ψ and the “Inhibition of CTX-induced fluid secretion (statistical significance)” value is “statistically significant inhibition”.

With `O=C(O)c1ccccc1Nc1cccc(C(F)(F)F)c1` [FFA, flufenamic acid, reference compound], the “Block of remaining chloride current after compound 10” value in assay [1] (intracellular calcium unbuffered, 100 μM FFA added after compound 10, FIG. 2) is listed as “blocks only slightly more”.
